These results are taken from US20110319351A1 (priority 2006, published 2011).

As a reminder, the IC50 is the concentration needed to halve the response being measured.

Several values for one entry are separate records, joined by “and”; a condition that tells them apart may be missing. Equal entries are not always repeated. Entries after “also recorded” stand apart in the source; their conditions may differ. Where two headings read alike, the source gives them in different places.

Data set [1] has as its system caspase-3 activity in Daudi cells. In words: DEVD-dependent caspase-3 activity, Daudi. It counts as cell-based, human. The note with it: 100 nM, 12 h. The method, then: (§1) Measurement of DEVD-dependent caspase-3 activity is a measure of induction of apoptosis, irrespective of the apoptotic pathway activated. The effect of digoxin (100 nM) to induce activation of caspase-3 activity in these tumor cell lines and as well as normal PBMC was examined. Tumor cells (1×10^7 cell/mL) and PBMC (1×10^7 cells/mL) were exposed to ultraviolet irradiation or digoxin (100 nM) for 12 h. The cells were then analyzed for caspase-3 activation using caspase-3 activation assay kit following the manufacturer's instructions.
(§2) Caspase-3 activity was measured using a caspase-3 assay kit (Sigma-Aldrich Co. St Louis, Mo.). Briefly, tumor cell lines (1×10^7 cells/mL), and PBMC (1×10^7 cells/mL) were cultured in the presence or absence of the indicated concentration of digoxin. Cells were harvested by centrifugation and washed once with PBS. Cells were lysed with lysis buffer (30 mM Tris-HCl, pH 7.5, 150 mM NaCl, 1% Triton X-100, and 10% glycerol) and were centrifuged to remove cell debris, Caspase 3 activity was assayed in the cell lysate according to the manufacturer's instructions. The colorimetric assay is based on spectrophotometric detection of chromophore pNA at 405 nm after cleavage from labelled substrate DEVD-pNA. The level of caspase 3 activity is interpolated from a calibration curve.

Data set [2] concerns the target T1, porcine cerebral cortex Na,K-ATPase.
T1 construct: other: 50% response relative to the m
In kind it is biochemical. An excerpt: In the current study, the sensitivity of cardiac glycosides on induction of apoptosis in lymphoblastic cancer cells was examined. The efficacy of digoxin and ouabain in inducing apoptosis in these cell lines was compared with NKA catalytic inhibition activity using porcine cerebral cortex (Table 1). The porcine cerebral cortex (PCC) is a model system known to express the three isoforms of NKA consisting of the three different alpha subunits (α1, α2 and α3) (Rose et al., Clin Chem, 40, 1674-1685 (1994)). The alpha subunit of the NKA contains the binding site of the cardiac glycosides, and like most cationic transporter proteins, the beta subunit act as chaperon, stabilizing the correct assembly of the alpha subunit and facilitating the delivery of the protein to the plasma membrane (Blanco et al., Am J Physiol, 275 (Renal Physiol. 44), F633-F650 (1998)).
In order to compare the concentrations of digoxin or ouabain that affect the induction of apoptosis with those that inhibit the sodium pump, the inhibitory potency of digoxin and ouabain on porcine cerebral cortex (PCC) Na.,K-ATPase catalytic activity was examined.
The values were calculated as 50% response relative to the maximum NKA activity on the PCC or maximum apoptosis on Jurkat and Daudi cells within the concentration ranges tested.
Inhibition of sodium pump catalytic activity by cardiac glycosides was measured by the release of phosphate upon hydrolysis of ATP (Qazzaz et al., Endocrinology, 141, 3200-3209 (2000)).

In data set [3] the test system is human lymphoblastic cell lines. The experiment in a line: Induction of apoptosis in the cancer cell lines (Jurkat and Daudi together). In kind it is cell-based. The note with it: read-out: concentration needed to induce a 50% apoptotic response. The method, then:
(§3) Tumor cell lines (5×10^5 cells/well) and PBMC (1×10^6 cells/well) were cultured in 24-well plates in the presence or absence of various concentrations of digoxin or ouabain for 48 h. The cells were harvested, washed twice in PBS, and analyzed for induction of apoptosis by annexin V-FITC/propidium iodide (PI) method (BD Bioscience, Lincoln Park, N.J.) according to the manufacturer's instructions. Cells were washed once with 1× binding buffer and stained with annexin V-FITC (5 μL) and PI (10 μL) for 15 minutes in the dark. Apoptosis was determined by flow cytometric analyses on a FACScan (BD Biosciences, Lincoln Park, N.J.). Ten thousand cells were analyzed per sample. In experiments where the effect of PHA was studied, cells were seeded accordingly in a 24-well plate and stimulated with PHA (1 μg/mL) for a minimum of 2 hours before treatment with the indicated concentrations of ouabain or digoxin. As a positive control for apoptosis, cells were exposed to ultra violet irradiation for […] and apoptosis was analyzed according to the method described above.

For data set [4] the following is noted: Kometiani et al. 2005; cited from earlier work.
A further data set has as its system PBMC. In words: Apoptosis after PHA stimulation, PBMC. It counts as cell-based, human. The note with it: PHA 1 μg/mL, digoxin 10 nM-100 nM, 48 h. The method, then:
as §3

Data set [5] relates to caspase-3 activity in PBMC. The experiment in a line: DEVD-dependent caspase-3 activity, PBMC. It counts as cell-based, human. The note with it: 100 nM, 12 h. The method, then:
as §1, §2

For data set [6], the system named is Jurkat cells. The experiment in a line: Induction of apoptosis, annexin V-FITC/propidium iodide flow cytometry, Jurkat. The note with it: for IC50: Homo sapiens, Jurkat; for highest percentage of apoptosis / increase in apoptosis vs untreated control: Jurkat cells; for highest percentage of apoptosis: n=4; for increase in apoptosis vs untreated control: increasing concentration 10 nM-500 nM. It counts as cell-based, human. On the procedure:
(§4) It was determined that the cardiac glycosides (e.g., digoxin and ouabain) selectively induce apoptosis in cancer cells relative to normal non-transformed cells. Through the experiments, some cells were exposed to ultraviolet irradiation as a positive control for induction of apoptosis, whereas cells cultured under normal conditions (95% […]/5% CO2 at 37° C.) acted as the negative control (see Methods). The percentage of counted cells in the lower and upper right hand quadrants are indicative of cells in early and late apoptosis, respectively. The viable cells are at the lower left quadrant. The figures that follow are summaries of data stemming from analysis of percent of cell count undergoing apoptosis as measured in FIG. 1.
(§5) Cell lines used in this study included: Jurkat E6-1, an acute human T-lymphoblastic leukemia cell line generated from a person; Daudi, a human B-lymphoblastoid line derived from Burkitt's lymphoma patient and K 562 derived from a human chronic myelogenous leukemia cell line. All cell lines were maintained in RPMI 1640 medium (Gibco Laboratories, Grand Island, N.Y.) supplemented with 10% fetal calf serum (FCS), 10 mM HEPES, 2 mM glutamine, 50 IU/mL penicillin, 50 μg/mL streptomycin, 0.1 mM non-essential amino acids and 1 mM sodium pyruvate and 0.5 μg/mL amphotericin B. Cells were cultured in a 5% CO2 atmosphere in a thermostatically maintained incubator (37° C.) in standard cell culture flasks. Cell cultures were split every 2-3 days and passage number noted.
as §3
Background: In flow cytometry, cells or beads pass a laser one at a time.

For data set [7], the system named is caspase-3 activity in Jurkat cells. The experiment in a line: DEVD-dependent caspase-3 activity, Jurkat. The note with it: 100 nM, 12 h. It counts as cell-based, human. The method, then: as §1, §2
Data set [8] concerns Jurkat cells. The experiment in a line: Apoptosis after PHA stimulation, Jurkat. It counts as cell-based, human. The note with it: PHA 1 μg/mL, digoxin 10 nM and 100 nM, 48 h. On the procedure:
as §3

For data set [9], the system named is peripheral blood mononuclear cells (PBMC). The experiment in a line: Induction of apoptosis, annexin V-FITC/propidium iodide flow cytometry, PBMC. It counts as cell-based, human. The note with it: increasing concentration, 48 h. On the procedure:
as §4, with “1. […]” for “1.”
(§6) Tumor cell lines (5×10^5 cells/well) and PBMC (1×10^6 cells/well) were cultured in 24-well plates in the presence or absence of various concentrations of digoxin or ouabain for 48 h. The cells were harvested, washed twice in PBS, and analyzed for induction of apoptosis by annexin V-FITC/propidium iodide (PI) method (BD Bioscience, Lincoln Park, N.J.) according to the manufacturer's instructions. […] Apoptosis was determined by flow cytometric analyses on a FACScan (BD Biosciences, Lincoln Park, N.J.). Ten thousand cells were analyzed per sample. […]

In data set [10] the test system is caspase-3 activity in K 562 cells. In words: DEVD-dependent caspase-3 activity, K 562. It counts as cell-based, human. The note with it: 100 nM, 12 h. On the procedure:
as §1, §2

The test system of another data set is Daudi cells. In words: Induction of apoptosis, annexin V-FITC/propidium iodide flow cytometry, Daudi. It counts as cell-based, human. The note with it: for highest percentage of apoptosis / increase in apoptosis vs untreated control: Daudi cells; for highest percentage of apoptosis: 500 nM, n=4; for increase in apoptosis vs untreated control: increasing concentration; for IC50: Homo sapiens, Daudi. On the procedure: as §4, §5, §3

A further data set deals with K 562 cells. In words: Induction of apoptosis, annexin V-FITC/propidium iodide flow cytometry, K 562. It counts as cell-based, human. The note with it: increasing concentrations, 48 h. On the procedure:
as §4, with “1. […]” for “1.”
as §6

Where [11] appears, read: 50% response relative to the maximum NKA activity on the PCC, read-out: IC50, Inhibitory Potency on Porcine cerebral cortex (PCC) NKA catalytic activity.
The mark [12] stands for this setting: range of the IC50, read-out: Range of IC50, Inhibitory Potency on PCC NKA catalytic activity.
Where [13] appears, read: 50% response relative to maximum apoptosis within the concentration ranges tested, 48 h, read-out: IC50, Induction of apoptosis on acute T-cell lymphoblastic leukemic cells (Jurkat).
[14] abbreviates: range of the IC50, read-out: Ranges of IC50, Induction of apoptosis on Jurkat.

Turning to `C[C@H]1O[C@@H](O[C@H]2[C@@H](O)C[C@H](O[C@H]3[C@@H](O)C[C@H](O[C@H]4CC[C@@]5(C)[C@H](CC[C@@H]6[C@@H]5C[C@@H](O)[C@]5(C)[C@@H](C7=CC(=O)OC7)CC[C@]65O)C4)O[C@@H]3C)O[C@@H]2C)C[C@H](O)[C@@H]1O` [Digoxin, digoxin], the “caspase-3 activity relative to the untreated controls” value in [1] is on record as 7 fold; in data set [5] it was “no such increases”; in data set [7] it was 8 fold; in data set [10], “no such increases”. Besides, the IC50 in data set [2] (setting [11]) was 910 nM; in [2] (setting [12]) it was 820 to 1010 nM; with Jurkat cells [6] (setting [13]) it was 24 nM; in the data set on Jurkat cells [6] (setting [14]), 11 to 56 nM; in the data set on Daudi cells (48 h, read-out: IC50, Induction of apoptosis on B-cell Burkitt's lymphoma cells (Daudi)) it was 48 nM; with Daudi cells (read-out: Ranges of IC50, Induction of apoptosis on Daudi) it was 35 to 65 nM. Besides, in [3], the EC50 was in the range of 20 to 40 nM. The “therapeutic concentrations in blood” value in data set [4] is “approximately 2 nM”. Besides, the “percent of apoptosis in the presence of PHA” value with PBMC is “No such effect”; with PBMC (listed as digoxin), “No such synergistic effect; also recorded: no such synergistic increase”; in the data set with Jurkat cells [8] it was “synergistically increased”; with Jurkat cells [8] (listed as digoxin), “synergistically induced apoptosis; also recorded: synergistically increased”. The “highest percentage of apoptosis” value in the data set on Jurkat cells [6] (500 nM, 48 h) is 50.2±4.5% and 50.2%±4.5%; with Daudi cells (48 h) it was 83.2±7.3% and 83.2%±7.3%. The “increase in apoptosis vs untreated control” value in the data set on Jurkat cells [6] (48 h) was “significantly (P<0.05) led to increases in apoptosis”; in [9], “neither digoxin nor ouabain significantly induced apoptosis; also recorded: did not significantly (P>0.05) lead to increase in apoptosis”; in the data set on Daudi cells (48 h) it was “significantly (P<0.05) led to increase in apoptosis”; in the data set with K 562 cells, “neither digoxin nor ouabain significantly induced apoptosis; also recorded: did not significantly (P>0.05) lead to increases in apoptosis”.
Regarding `C[C@@H]1O[C@@H](O[C@H]2C[C@@H](O)[C@]3(CO)[C@H]4[C@H](O)C[C@]5(C)[C@@H](C6=CC(=O)OC6)CC[C@]5(O)[C@@H]4CC[C@]3(O)C2)[C@H](O)[C@H](O)[C@H]1O` [Ouabain, ouabain], the IC50 in [2] (setting [11]) was 600 nM; in data set [2] (setting [12]) it was 550 to 650 nM; with Jurkat cells [6] (setting [13]), 26 nM; in the data set on Jurkat cells [6] (setting [14]), 19 to 48 nM; in the data set on Daudi cells (50% response relative to maximum apoptosis within the concentration ranges tested, 48 h, read-out: IC50, Induction of apoptosis on B-cell Burkitt's lymphoma cells (Daudi)) it was 40 nM; with Daudi cells (range of the IC50, read-out: Ranges of IC50, Induction of apoptosis on Daudi) it was 36 to 56 nM. Also, the EC50 in data set [3] (based on the maximum apoptosis at 500 nM, for each of the cancer cell lines) lay within 20 to 40 nM. Also, the “highest percentage of apoptosis” value in the data set on Jurkat cells [6] (100 nM, 48 h) was 47.6±3.9% and 47.6±5.6%; in the data set with Daudi cells (48 h), 81.1±6.1%. Besides, the “increase in apoptosis vs untreated control” value with Jurkat cells [6] (48 h) is reported as “significantly (P<0.05) led to increases in apoptosis”; in data set [9], “neither digoxin nor ouabain significantly induced apoptosis; also recorded: did not significantly (P>0.05) lead to increase in apoptosis”; with Daudi cells (48 h), “significantly (P<0.05) led to increase in apoptosis”; with K 562 cells, “neither digoxin nor ouabain significantly induced apoptosis; also recorded: did not significantly (P>0.05) lead to increases in apoptosis”.
